# Read-outs that look alike come from different tables or passages of the source.
# What was measured:
# [1] = system: Human Endometrial Ishikawa Cells; test: Alkaline Phosphatase Assay in Human Endometrial Ishikawa Cells; format: cell-based; details: alkaline phosphatase activity, chemiluminescence; for EC50: 72 h, agonist mode, 3 days incubation, read-out: Agonist (No.); for IC50: antagonist mode, 10 nM 17β-estradiol added, read-out: Antagonist (No.)
# Protocol: This assay was run according to the procedure described by Albert et a., Cancer Res, […], 50(11), 330-6-10, with minor modification.
# Ishikawa cells (from ATCC) were maintained in DMEM/F12 (1:1) phenol red free medium (Gibco) supplemented with 10% calf serum (Hyclone). 24 hours prior to testing, the medium was changed to DMEM/F12 (1:1) phenol red free containing 2% calf serum.
# Compounds to be tested in the agonist mode were added to the culture media at varying concentrations. Compounds to be treated in the antagonist mode were prepared similarly, and 10 nM 17β-estradiol was also added to the culture media. The cells were then incubated at 37° C. for 3 days. On the fourth day, the media was remove, 1 volume of 1× Dilution Buffer (Clontech) was added to the well followed by addition of 1 volume of Assay Buffer (Clontech). The cells were then incubated at room temperature for 5 minutes. 1 volume of freshly prepared Chemiluminescence Buffer (1 volume of chemiluminescent substrate (CSPD) in 19 volume Chemiluminescent Enhancer with final concentration of CSPD at 1.25 mM; Sigma Chemical Co.) was added. The cells were incubated at room temperature for 10 minutes and then quantified on a luminometer. The increase of chemiluminescence over vehicle control was used to calculate the increase in alkaline phosphatase activity.
# MCF-7 cells = test: MCF-7 Cell Proliferation Assay (14C-thymidine incorporation); format: cell-based; details: for EC50: MCF7, agonist mode, increase in 14C-thymidine relative to vehicle control, read-out: Agonist (No.); for IC50: 10 nM 17β-estradiol added, 14C-thymidine, read-out: Antagonist (No.)
# Protocol: This assay was run according to the procedure described by Welshons, et al., (Breast Cancer Res. Treat., 1987, 10(2), 169-75), with minor modification.
# Briefly, MCF-7 cells (from Dr. C. Jordan, Northwestern University) were maintained in RPMI 1640 phenol red free medium (Gibco) in 10% FBS (Hyclone), supplemented with bovine insulin and non-essential amino acid (Sigma). The cells were initially treated with 4-hydoxyltamoxifen (10^−8 M) and let stand at 37° C. for 24 hours. Following this incubation with tamoxifen, the cells were treated with compounds at various concentrations.
# Compounds to be tested in the agonist mode were added to the culture media at varying concentrations. Compounds to be treated in the antagonist mode were prepared similarly, and 10 nM 17β-estradiol was also added to the culture media. The cells were incubated for 24 hours at 37° C. Following this incubation, 0.1 µCi of ^14C-thymidine (56 mCi/mmol, Amersham) was added to the culture media and the cells were incubated for an additional 24 hours at 37° C. The cells were then washed twice with Hank's buffered salt solution (HBSS) (Gibco) and counted with a scintillation counter. The increase in the ^14C-thymidine in the compound treated cells relative to the vehicle control cells were reported as percent increase in cell proliferation.
# [2] = Homo sapiens, MCF7, antagonist mode
compound,measurement,setting,value
"Oc1ccc2c(c1)O[C@H](c1ccc(OCCN3CCCCC3)cc1)C1=C2CCC2(C1)SCCS2 (stereo in doubt) [R*-11, 9R*-2-(Hydroxy)-{9-[4′-(2′-piperidinyl-ethoxy)-phenyl]-11,14-spiro[4,5]-5,6,7,8-tetrahydro-9H-benzo[c]chromene]",EC50,[1]; Homo sapiens,> 10000 nM
same,IC50,[1]; Homo sapiens,41.9 nM
same,EC50,MCF-7 cells; Homo sapiens,> 10000 nM
same,IC50,MCF-7 cells; [2],672 nM
Oc1ccc2c(c1)OC(c1ccc(OCCN3CCCCC3)cc1)C1=C2CCC2(C1)SCCS2 (stereo not drawn) [Compound 11],EC50,[1]; Homo sapiens,> 10000 nM
same,IC50,[1]; Homo sapiens,29.6 nM
same,EC50,MCF-7 cells; Homo sapiens,> 10000 nM
same,IC50,MCF-7 cells; [2],1060 nM
Oc1ccc2c(c1)OC(c1ccc(OCCN3CCCCC3)cc1)C1=C2CCC2(C1)SCCCS2 (stereo not drawn) [Compound 12],EC50,[1]; Homo sapiens,> 10000 nM
same,IC50,[1]; Homo sapiens,35.1 nM
same,EC50,MCF-7 cells; Homo sapiens,> 10000 nM
same,IC50,MCF-7 cells; [2],686 nM
"9R*-2″,2″-Dimethyl-propionic Acid-{9-[4′-(2′-piperidinyl-ethoxy)-phenyl]-11,15-spiro[5,5]-5,6,7,8-tetrahydro-9H-benzo[c]chromen-2-yl Ester [R*-16]",IC50,[1],25.8 nM
same,IC50,MCF-7 cells; antagonist mode,271 nM
"9S*-2″,2″-Dimethyl-propionic Acid-{9-[4′-(2′-piperidinyl-ethoxy)-phenyl]-11,14-spiro[4,5]-5,6,7,8-tetrahydro-9H-benzo[c]chromen-2-yl Ester [S*-15]",IC50,[1],> 10000 nM
same,IC50,MCF-7 cells; antagonist mode,> 10000 nM
"9S*-2″,2″-Dimethyl-propionic Acid-{9-[4′-(2′-piperidinyl-ethoxy)-phenyl]-11,15-spiro[5,5]-5,6,7,8-tetrahydro-9H-benzo[c]chromen-2-yl Ester [S*-16]",IC50,[1],> 10000 nM
same,IC50,MCF-7 cells; antagonist mode,> 10000 nM
Oc1ccc2c(c1)OC(c1ccc(OCCN3CCCC3)cc1)C1=C2CCC2(C1)SCCS2 (stereo not drawn) [Compound 13],EC50,[1]; Homo sapiens,> 10000 nM
same,IC50,[1]; Homo sapiens,1050 nM
same,EC50,MCF-7 cells; Homo sapiens,> 10000 nM
same,IC50,MCF-7 cells; [2],> 10000 nM
"9R*-2″,2″-Dimethyl-propionic Acid-{9-[4′-(2′-piperidinyl-ethoxy)-phenyl]-11,14-spiro[4,5]-5,6,7,8-tetrahydro-9H-benzo[c]chromen-2-yl Ester [R*-15]",IC50,[1],220 nM
same,IC50,MCF-7 cells; antagonist mode,770 nM
O=S1(=O)CCCS(=O)(=O)C12CCC1=C(C2)C(c2ccc(OCCN3CCCCC3)cc2)Oc2cc(O)ccc21 (stereo not drawn) [Compound 17],EC50,[1]; Homo sapiens,> 10000 nM
same,IC50,[1]; Homo sapiens,> 10000 nM
same,EC50,MCF-7 cells; Homo sapiens,> 10000 nM
same,IC50,MCF-7 cells; [2],> 10000 nM
CCN(CC)CCOc1ccc(C2Oc3cc(O)ccc3C3=C2CC2(CC3)SCCS2)cc1 (stereo not drawn) [Compound 14],EC50,[1]; Homo sapiens,> 10000 nM
same,IC50,[1]; Homo sapiens,65.9 nM
same,EC50,MCF-7 cells; Homo sapiens,> 10000 nM
same,IC50,MCF-7 cells; [2],4970 nM
"Oc1ccc2c(c1)O[C@@H](c1ccc(OCCN3CCCCC3)cc1)C1=C2CCC2(C1)SCCS2 (stereo in doubt) [S*-11, 9S*-2-(Hydroxy)-{9-[4′-(2′-piperidinyl-ethoxy)-phenyl]-11,14-spiro[4,5]-5,6,7,8-tetrahydro-9H-benzo[c]chromene]",EC50,[1]; Homo sapiens,> 10000 nM
same,IC50,[1]; Homo sapiens,1020 nM
same,EC50,MCF-7 cells; Homo sapiens,> 10000 nM
same,IC50,MCF-7 cells; [2],> 10000 nM
